This note sets out measurements from ChEMBL document CHEMBL1201862, “PubChem BioAssay data set” (2004).

Holding throughout (assay): growth of human tumour cells (NCI), 48 h
The test system of assay [1] is HCT-15.
Assay [2] concerns CAKI-1.
For assay [3], the system named is SK-MEL-2.
Assay [4] deals with MOLT-4.
The test system of assay [5] is UACC-257.
Assay [6] relates to COLO 205.
Assay [7] concerns SNB-19.
The test system of assay [8] is SF-539.
For assay [9], the system named is EKVX.
The test system of assay [10] is NCI-H23.
In assay [11] the test system is OVCAR-4.
Assay [12] has as its system NCI-H460.
The subject of assay [13] is Malme-3M.
In assay [14] the test system is 786-0.
Assay [15] relates to SK-OV-3.
The test system of assay [16] is M14.
Assay [17] concerns MDA-MB-435.
In assay [18] the test system is SF-295.
Assay [19] deals with HCC 2998.
The test system of assay [20] is TK-10.

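Protocol summary: plate cells (96-well), add compound at 5 concentrations, incubate 48 h, interpolate endpoints linearly. GI50 = concentration required for 50% inhibition of growth.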 Activity calls are given as the source filed them. Rule as the data show it: active = GI50 up to about 1.1 µM and inactive = higher. Where only a bound is given, the exact number is not on record here.

As for `CC(C)c1nc2c(Cl)c3ncccc3cc2[nH]c1=O`, the GI50 in assay [1] was 74 µM; in [2], 94.6 µM (inactive); in [3], > 100 µM (inactive); in assay [4], 29.6 µM (inactive); in [5], > 100 µM (inactive); in [6] it was > 100 µM (inactive). In addition, the GI50 in [7] was > 100 µM (inactive); in assay [8], > 100 µM (inactive); in [9], 9.71 µM (inactive); in assay [10] it was 80.2 µM (inactive); in assay [11], 67.8 µM (inactive); in assay [12], 88.1 µM (inactive). Further, the GI50 in [13], in assay [14], in assay [15], in assay [16], in assay [17] and in assay [18] was > 100 µM (inactive) throughout.

`CCCCCCCCC(=O)NCCCNCCCNC(=O)CCCCCCCC`: the GI50 is 14.7 µM in assay [1]; 13 µM (inactive) in [2]; 3.25 µM (inactive) in [3]; 3.4 µM (inactive) in [4]; 7.1 µM (inactive) in assay [5]; 2.84 µM (inactive) in assay [19]. Moreover, the GI50 in [6] was 4.88 µM (inactive); in [7], 19.1 µM (inactive); in assay [8] it was 15.7 µM (inactive); in assay [9] it was 14.9 µM (inactive); in assay [10], 15.7 µM (inactive); in [11] it was 14.7 µM (inactive). The GI50 was 2.54 µM (inactive) in [12]; 12.6 µM (inactive) in assay [13]; 1.86 µM (inactive) in [14]; 14.3 µM (inactive) in [15]; 2.07 µM (inactive) in assay [16]; 5.65 µM (inactive) in assay [18]. The GI50 in assay [20] was 15.1 µM (inactive).

Consider `N#C/C(=C\c1cc(OCc2ccccc2)c(OCc2ccccc2)cn1)C(N)=O`, for which the GI50 is over 100 µM in assay [1]; > 100 µM (inactive) in [2]; > 100 µM (inactive) in [3]; 23.3 µM (inactive) in assay [4]; > 100 µM (inactive) in assay [5]; > 100 µM (inactive) in [19]. The GI50 in assay [6], in [7], in assay [8], in assay [9], in assay [10] and in [11] was > 100 µM (inactive) in each case. The GI50 in [12], in assay [13], in assay [14], in assay [15], in assay [16] and in assay [18] was > 100 µM (inactive) throughout. For the same molecule, the GI50 in assay [20] was > 100 µM (inactive).

On to `CC[C@]1(Cc2ccc(OC)c(OC)c2)[C@@H]2C[C@@H](C3OCCO3)ON2O[C@H](OC2CCCC2(c2ccccc2)c2ccccc2)[C@@H]1OC(C)=O` (stereo not given in full), for which the GI50 in assay [1] is 14.5 µM; in assay [2], 32.8 µM (inactive); in assay [3] it was 15.7 µM (inactive); in assay [4], 10.1 µM (inactive); in [5] it was 19.6 µM (inactive); in assay [6] it was 26.9 µM (inactive). For the same molecule, the GI50 was 18.1 µM (inactive) in assay [7]; 40.4 µM (inactive) in assay [8]; 21.1 µM (inactive) in assay [9]; 21 µM (inactive) in assay [10]; 16.1 µM (inactive) in assay [12]; 20 µM (inactive) in [14]. In addition, the GI50 was 43.1 µM (inactive) in assay [15]; 16.2 µM (inactive) in assay [16]; 21.5 µM (inactive) in [17]; 21.2 µM (inactive) in [18]; 45.3 µM (inactive) in assay [20].

For `COC(=O)/C=C(\S/C(=C(/c1ccc(OC)cc1)n1cc(C(=O)OC)c(C(=O)OC)n1)c1ccc(OC)cc1)C(=O)OC`, the GI50 in [1] was 6.43 µM; in assay [2] it was 2.58 µM (inactive); in assay [3] it was 32.6 µM (inactive); in [4], 2.78 µM (inactive); in assay [5], 8.49 µM (inactive); in assay [6], 3.01 µM (inactive). Also, the GI50 in assay [7] was 51.8 µM (inactive); in [8], 21.6 µM (inactive); in [9] it was 21.6 µM (inactive); in [10] it was 37.2 µM (inactive); in [11], 19.4 µM (inactive); in assay [12], 35.9 µM (inactive). Besides, the GI50 in [13] was 13.7 µM (inactive); in [14], 5.36 µM (inactive); in assay [15], > 100 µM (inactive); in assay [16], 21.6 µM (inactive); in assay [17], 16.7 µM (inactive); in assay [18], > 100 µM (inactive). The GI50 in [20] is 4.33 µM (inactive).

In the case of `COc1cccc(C(=O)N2CCc3ccccc32)c1OC`, the GI50 was 21 µM in assay [1]; 38.5 µM (inactive) in assay [2]; > 100 µM (inactive) in assay [3]; 23 µM (inactive) in assay [4]; 53.1 µM (inactive) in assay [5]; 85.1 µM (inactive) in [19]. For the same molecule, the GI50 in [6] is 58.7 µM (inactive); in assay [7], 74.8 µM (inactive); in assay [8], > 100 µM (inactive); in assay [9], > 100 µM (inactive); in assay [10], 34.4 µM (inactive); in assay [11], 48.9 µM (inactive). The GI50 in assay [12] was 81.8 µM (inactive); in assay [13], 60.4 µM (inactive); in assay [14], > 100 µM (inactive); in assay [15], 48.8 µM (inactive); in assay [16], 43.6 µM (inactive); in [18], 38.5 µM (inactive). In addition, the GI50 in assay [20] was 57.8 µM (inactive).

`COc1ccc(Cn2nc(OCc3ccccc3)c3cc([N+](=O)[O-])ccc32)cc1`: the GI50 in [1] was over 100 µM; in assay [3], > 100 µM (inactive); in [4], > 100 µM (inactive); in assay [5], > 100 µM (inactive); in assay [19], 99.3 µM (inactive); in [7] it was > 100 µM (inactive). The GI50 in assay [8], in assay [10], in assay [12], in [13], in assay [14] and in assay [15] was > 100 µM (inactive) throughout. Moreover, the GI50 in [16], in assay [17], in [18] and in [20] was > 100 µM (inactive) throughout.

For `O=C(Sc1c(-c2ccccc2)c(=O)n(-c2ccccc2)c(=S)n1-c1ccccc1)c1cccs1`, the GI50 was 34.7 µM in assay [1]; > 100 µM (inactive) in assay [2]; 53 µM (inactive) in assay [3]; 18.7 µM (inactive) in assay [4]; 60.3 µM (inactive) in assay [5]; > 100 µM (inactive) in assay [6]. For the same molecule, the GI50 was > 100 µM (inactive) in [7]; > 100 µM (inactive) in assay [9]; > 100 µM (inactive) in assay [10]; > 100 µM (inactive) in [11]; > 100 µM (inactive) in assay [12]; 86.3 µM (inactive) in assay [13]. The GI50 is 49.8 µM (inactive) in assay [14]; 35 µM (inactive) in [15]; 53.6 µM (inactive) in [16]; 56.4 µM (inactive) in [17]; 61 µM (inactive) in [18]; > 100 µM (inactive) in assay [20].

For `Brc1ccc(C2C3CSc4ccccc4C3=NN2c2ccccc2)cc1` (stereo not given), the GI50 in assay [1] is 39.6 µM; in [2], 41 µM (inactive); in assay [3], > 100 µM (inactive); in assay [4] it was 43 µM (inactive); in [5] it was 4.07 µM (inactive); in [6], 97.1 µM (inactive). Moreover, the GI50 was > 100 µM (inactive) in assay [7]; 59 µM (inactive) in assay [8]; > 100 µM (inactive) in assay [10]; 7.62 µM (inactive) in assay [11]; 32.8 µM (inactive) in [12]; > 100 µM (inactive) in assay [13]. The GI50 in assay [14] was > 100 µM (inactive); in assay [15], 82.8 µM (inactive); in assay [16], > 100 µM (inactive); in assay [17] it was > 100 µM (inactive); in assay [20], > 100 µM (inactive).

With `O=C(O)/C=C/C(=O)N1C/C(=C\c2ccccc2)C(=O)/C(=C/c2ccccc2)C1`, the GI50 is 6.73 µM in [1]; 15.1 µM (inactive) in assay [2]; 12.6 µM (inactive) in [3]; 2.81 µM (inactive) in assay [4]; 7.18 µM (inactive) in assay [5]; 6.67 µM (inactive) in [19]. Moreover, the GI50 was 10.2 µM (inactive) in assay [6]; 11.3 µM (inactive) in assay [7]; 10.8 µM (inactive) in [8]; 23.5 µM (inactive) in assay [9]; 9.71 µM (inactive) in assay [10]; 7.43 µM (inactive) in assay [11]. Besides, the GI50 in [12] is 14.1 µM (inactive); in assay [13], 4.72 µM (inactive); in [14], 3.3 µM (inactive); in assay [15], 21.3 µM (inactive); in [16] it was 3.4 µM (inactive); in assay [18] it was 5.01 µM (inactive). The GI50 in assay [20] is 10.3 µM (inactive).

In the case of `CC(N)Cc1ccc(Cl)cc1` (stereo not given), the GI50 in [1] is 51.6 µM; in [2], > 100 µM (inactive); in assay [3], > 100 µM (inactive); in assay [4], 68.9 µM (inactive); in [5], > 100 µM (inactive); in assay [19] it was > 100 µM (inactive). Besides, the GI50 in [6] was > 100 µM (inactive); in [7] it was > 100 µM (inactive); in assay [8], > 100 µM (inactive); in assay [9], > 100 µM (inactive); in assay [10], 39.5 µM (inactive); in assay [11] it was > 100 µM (inactive). Moreover, the GI50 was 50 µM (inactive) in assay [12]; > 100 µM (inactive) in assay [13]; > 100 µM (inactive) in assay [14]; > 100 µM (inactive) in assay [15]; > 100 µM (inactive) in assay [16]; 47.9 µM (inactive) in assay [18]. Moreover, the GI50 in [20] was > 100 µM (inactive).
